Laboratory results as given in patent US12516056B2, “Compounds for inhibition of janus kinase 1” (MANKIND PHARMA LTD., priority 2019, dated 2026).
Where two headings read alike, the source gives them in different places.

Key:
[1] = test system: STAT5 phosphorylation by IL-2 in HT-2 cells; test: STAT5 phosphorylation by IL-2 in HT-2 cells (HTRF); type: cell-based; conditions: HT2, HT-2 cells
Summary of the method: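 Readout is HTRF detection of phospho-STAT5 in lysates, corrected for signal from unstimulated cells. Before lysis, HT-2 cells starved in 10% FBS medium received compound for 30 min (0.2% DMSO final, 37 °C), followed by 50 U/ml recombinant human IL-2 for 20 min.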

[2] = test system: STAT5 phosphorylation by GMCSF in TF-1 cells; test: JAK cellular assay: STAT5 phosphorylation by GMCSF in TF-1 cells (HTRF); type: cell-based; conditions: Homo sapiens, TF-1 cells
Summary of the method: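 Phospho-STAT3 (IL-6, 30 ng/ml) and phospho-STAT5 (GMCSF, 5 ng/ml) read by HTRF in lysates after 20 min cytokine exposure, minus unstimulated-cell background. Cells were serum-starved overnight, plated at 120,000/well, given compound 30 min at 37 °C beforehand; DMSO 0.2% final.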

[3] = test system: Imiquimod induced dermatitis in mice; test: Mouse model of Imiquimod induced psoriasis; type: in vivo, Female BALB/c mice; conditions: 3% topical, QD; for back skin thickness / cumulative psoriasis score compared to vehicle / ear thickness: IMQ induced psoriasis, mice
Method: Imiquimod (IMQ) induced dermatitis closely resembles human psoriasis lesions not only with regard to phenotypic and histological characteristics but also in the development of the lesions. IMQ is a ligand for toll-like receptor 7 (TLR7) and TLR8, and is a potent immune activator. […] Migration of activated dermal dendritic cells to lymph nodes in skin triggers a sequence of events leading to late phase of psoriasis. Compounds described herein are tested for JAK inhibition driven efficacy in Imiquimod induced dermatitis in mice.
Female BALB/c mice were topically dosed with 3% cream formulation containing test compounds. After four hours of test compound administration, 5% Imiquimod was applied on back skin and right ear for five days. On day 6, post dosing with test compounds, the severity of psoriasis was monitored and graded following Psoriasis Area and Severity Index (PASI). Efficacies of the compounds were evaluated based on PASI score. Redness, thickness and scaling of back skin and ear were assessed among the groups for scoring.

[4] = test system: oxazolone induced colitis; test: Murine model of oxazolone induced colitis; type: in vivo, Male BALB/c mice; conditions: 30 mpk, PO, BID
[5] = IL-2 50 U/ml, pSTAT5 HTRF, read-out: Cell Based Assay (μM) HT-2/IL-2/pSTAT5
[6] = IL-2 stimulation, read-out: Cell based IC50 (μM) HT-2/IL-2
[7] = GM-CSF stimulation, read-out: Cell based IC50 (μM) TF-1/GM-CSF

Compound	IC50 [1, 5] [µM]	IC50 [1, 6] [µM]	IC50 [2, 7] [µM]	IC50 ([2]; GMCSF 5 ng/ml, pSTAT5 HTRF, read-out: Cell Based Assay (μM) TF-1/GMCSF/pSTAT5) [µM]	back skin thickness [3]	cumulative psoriasis score compared to vehicle [3]	ear thickness [3]	efficacy compared to 1133 and reference compound filgotinib (psoriasis model) [3]	efficacy in comparison to Filgotinib (colitis model) [4]
CN1CCC(C(O)(c2ccc(-n3cc(-c4ccnc5[nH]cnc45)cn3)nc2)C(F)(F)F)CC1 (stereo not drawn) [Example 1133, 1-(6-(4-(3H-imidazo[4,5-b]pyridin-7-yl)-1H-pyrazol-1-yl)pyridin-3-yl)-2,2,2-trifluoro-1-(1-methylpiperidin-4-yl)ethanol]	2.3	2.3	> 10	> 10	significant decrease	statistically significant decrease	significant decrease	–	–
CC(C)NC(=O)CC[C@@H](c1ccc(-n2cc(-c3ccnc4[nH]cnc34)cn2)nc1)C(F)(F)F [Example 1215, (S)-4-(6-(4-(3H-imidazo[4,5-b]pyridin-7-yl)-1H-pyrazol-1-yl)pyridin-3-yl)-5,5,5-trifluoro-N-isopropylpentanamide]	0.75	0.7	> 10	–	significant decrease	statistically significant decrease	significant decrease	better efficacy	better efficacy
